# Tests used:
# Type in all cases: cell-based
# [1] = test system: AMO-1; experiment: Cell viability assay, AMO-1; conditions: Homo sapiens, AMO1, AMO-1, Multiple Myeloma
# Experimental: (§1) Cells were seeded at a density of 5000 cells per well in 96-well assay plates and treated with test compounds following a 12-point 3-fold serial dilution. Three days later, cell viability was determined using the CellTiter-Glo assay kit according to the manufacturer's instructions. The dose-response curves were determined and IC50 values were calculated using the GraphPad Prism software following a nonlinear regression (least squares fit) method.
# (§2) The IC50 value of each compound was determined as described in FIG. 4 and calculated using the GraphPad Prism 5.0 software.
# [2] = test system: RPMI-8226; experiment: Cell viability assay, RPMI-8226; conditions: Homo sapiens, RPMI-8226, Multiple myeloma
# Experimental: as §1, §2
# [3] = test system: NCI-H929; experiment: Cell viability assay, NCI-H929; conditions: Homo sapiens, NCI-H929, Multiple Myeloma
# Experimental: as §1, §2
# [4] = test system: MCF-7; experiment: Cell viability assay, MCF-7; conditions: Homo sapiens, MCF7, MCF-7, breast carcinoma
# Experimental: as §1, §2
# [5] = test system: VCaP; experiment: Cell viability assay, VCaP; conditions: Homo sapiens, Prostate carcinoma
# Experimental: as §1, §2
# [6] = test system: LK-2; experiment: Cell viability assay, LK-2; conditions: Homo sapiens, LK-2, Non-small cell lung cancer
# Experimental: as §1, §2
# [7] = test system: SK-BR-3; experiment: Cell viability assay, SK-BR-3; conditions: Homo sapiens, SK-BR-3, breast carcinoma
# Experimental: as §1, §2
# [8] = test system: MV4; 11; experiment: Cell viability assay, MV4; 11; conditions: Homo sapiens, 11, Acute monocytic leukemia
# Experimental: as §1, §2
# [9] = test system: Pfeiffer; experiment: Cell viability assay, Pfeiffer; conditions: Homo sapiens, Diffuse large B-cell lymphoma
# Experimental: as §1, §2
# [10] = test system: NCI-H1703; experiment: Cell viability assay, NCI-H1703; conditions: Homo sapiens, NCI-H1703, Non-small cell lung cancer
# Experimental: as §1, §2
# [11] = test system: MM.1R; experiment: Cell viability assay, MM.1R; conditions: Multiple Myeloma
# Experimental: as §1, §2
# [12] = test system: HL-60; experiment: Cell viability assay, HL-60; conditions: Homo sapiens, HL-60, Acute myeloid leukemia
# Experimental: as §1, §2
# [13] = test system: Kasumi-1; experiment: Cell viability assay, Kasumi-1; conditions: Homo sapiens, Kasumi-1, Acute myeloid leukemia
# Experimental: as §1, §2
# [14] = test system: 22Rv1; experiment: Cell viability assay, 22Rv1; conditions: Homo sapiens, 22Rv1, Prostate carcinoma
# Experimental: as §1, §2
# [15] = test system: SU-DHL-1; experiment: Cell viability assay, SU-DHL-1; conditions: Homo sapiens, SU-DHL-1, Diffuse large B-cell lymphoma
# Experimental: as §1, §2
# [16] = test system: NCI-H520; experiment: Cell viability assay, NCI-H520; conditions: Homo sapiens, NCI-H520, Non-small cell lung cancer
# Experimental: as §1, §2
# [17] = test system: MM.1S; experiment: Cell viability assay, MM.1S; conditions: Homo sapiens, MM1.S, Multiple Myeloma
# Experimental: as §1, §2
# [18] = test system: Karpas-422; experiment: Cell viability assay, Karpas-422; conditions: Homo sapiens, Karpas-422, Diffuse large B-cell lymphoma
# Experimental: as §1, §2
# [19] = test system: WSU-DLCL2; experiment: Cell viability assay, WSU-DLCL2; conditions: Homo sapiens, WSUDLCL2, WSU-DLCL2, Diffuse large B-cell lymphoma
# Experimental: as §1, §2
# [20] = test system: HEL; experiment: Cell viability assay, HEL; conditions: Homo sapiens, Erythroleukemia
# Experimental: as §1, §2
# [21] = test system: L-363; experiment: Cell viability assay, L-363; conditions: Homo sapiens, L-363, Multiple myeloma
# Experimental: as §1, §2
# [22] = test system: LNCaP cells; experiment: LNCaP cell viability assay (CellTiter-Glo); conditions: Homo sapiens; cell viability, LNCaP clone FGC, Prostate carcinoma (Table 4)
# In short: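 LNCaP cells, 5000/well, exposed to compounds in 12-point 3-fold serial dilution (top 10 μM) for 3 days. Viability by CellTiter-Glo luminescence, normalized to untreated cells; IC50 by least-squares nonlinear regression.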
# [23] = test system: MEG-01; experiment: Cell viability assay, MEG-01; conditions: Homo sapiens, MEG-01, Chronic myeloid leukemia
# Experimental: as §1, §2
# [24] = test system: NOMO-1; experiment: Cell viability assay, NOMO-1; conditions: Homo sapiens, NOMO-1, Acute monocytic leukemia
# Experimental: as §1, §2
# [25] = test system: MOLM-13; experiment: Cell viability assay, MOLM-13; conditions: Homo sapiens, MOLM-13, Acute monocytic leukemia
# Experimental: as §1, §2
smiles,measurement,setting,value
"CNC(=O)N1CCc2c(c(N3CCCc4cc(-c5cnn(C)c5)c(C(F)F)cc43)nn2C2CCOCC2)C1 [GNE-781, reference compound]",IC50,[1],138 nM
same,IC50,[2],10.3 nM
same,IC50,[3],15.6 nM
same,IC50,[4],2390 nM
same,IC50,[5],723 nM
same,IC50,[6],2710 nM
same,IC50,[7],> 10000 nM
same,IC50,[8],> 10000 nM
same,IC50,[9],132 nM
same,IC50,[10],> 10000 nM
same,IC50,[11],13.2 nM
same,IC50,[12],> 10000 nM
same,IC50,[13],346 nM
same,IC50,[14],1680 nM
same,IC50,[15],> 1000 nM
same,IC50,[16],5380 nM
same,IC50,[17],12.8 nM
same,IC50,[18],> 10000 nM
same,IC50,[19],14 nM
same,IC50,[20],> 10000 nM
same,IC50,[21],> 1000 nM
same,IC50,[22],4170 nM
same,IC50,[23],> 10000 nM
same,IC50,[24],> 10000 nM
same,IC50,[25],> 10000 nM

# — US20230073777A1, “CYCLIC-AMP RESPONSE ELEMENT BINDING PROTEIN (CBP) AND/OR ADENOVIRAL E1A BINDING PROTEIN OF 300 KDA (P300) DEGRADATION COMPOUNDS AND METHODS OF USE” (CULLGEN (SHANGHAI), INC., priority 2019, published 2023)
